The results in this text go back to patent US20250366475A1, “HERBICIDAL COMBINATIONS AND A METHOD FOR CONTROLLING UNDESIRED VEGETATION” (UPL Mauritius Limited, priority 2022, published 2025).

Each structure is given as a SMILES string.

The test system of the experiment is Brachiaria decumbens. Briefly: Post-emergence herbicidal activity, efficacy on Brachiaria decumbens (Colby method for expected efficacy). The experiment is classed as in vivo. As for the experimental part: Methodology: Trials were conducted to evaluate the efficacy of the combinations comprising L-glufosinate ammonium and the additional herbicides on Brachiaria genus weeds.
All treatments were in 4 replications per treatment with a spray volume of about 150 L/ha.
Efficacy Evaluation: The expected efficacy of a combination comprising L-glufosinate ammonium and additional herbicides was calculated using the well-established Colby method.
In the Colby method, the expected (or predicted) response of a combination of herbicides is calculated by taking the product of the observed response for each individual component of the combination when applied alone, divided by 100, and subtracting this value from the sum of the observed response for each component when applied alone. An unexpected enhancement in efficacy of the combination is then determined by comparing the observed response of the combination to the expected (or predicted) response as calculated from the observed response of each individual component alone. […] The Colby method requires only a single dose of each herbicide applied alone and the mixture of both doses. The formula used to calculate the expected efficacy (EE) which was compared with the observed efficacy (OE) to determine the efficacy of the present disclosure is explained hereinbelow:
The expected efficacy for a combination of two active ingredients is as follows:
[formula] • wherein, • A=Observed efficacy of active ingredient A at the same concentration as used in the mixture. • B=Observed efficacy of the active ingredient B at the same concentration as used in the mixture.

Take `Cc1ccc2c(c1)[C@H](Nc1nc(N)nc(C(C)F)n1)[C@@H](C)C2` (some centres unmarked) [Indaziflam]: the “Observed efficacy (%)” value (50 g a.i./ha, 7 DAA, Table 8) came out at 50%; the “Observed efficacy (%)” value (50 g a.i./ha, 14 DAA, Table 8) is listed as 75%; the “Observed efficacy (%)” value (50 g a.i./ha, 21 DAA, Table 8) came to 90%.
In the case of `CS(=O)(=O)c1cc(C(F)(F)F)ccc1C(=O)c1cnoc1C1CC1` [Isoxaflutole], the “Observed efficacy (%)” value (60 g a.i./ha, 7 DAA, Table 9) amounted to 45%; the “Observed efficacy (%)” value (60 g a.i./ha, 14 DAA, Table 9) is 70%; the “Observed efficacy (%)” value (60 g a.i./ha, 21 DAA, Table 9) was 85%; the “Observed efficacy (%)” value (60 g a.i./ha, 28 DAA, Table 9) is given as 75%.
For `CP(=O)(O)CC[C@H](N)C(=O)O.N` [L-glufosinate ammonium], the “Observed efficacy (%)” value runs as follows: (150 g a.i./ha, 3 DAA, Table 13) 40%; (150 g a.i./ha, 3 DAA, Table 16) 40%; (150 g a.i./ha, 7 DAA, Table 7) 65%; (150 g a.i./ha, 7 DAA, Table 8) 75%; (150 g a.i./ha, 7 DAA, Table 9) 70%; (150 g a.i./ha, 7 DAA, Table 10) 65%. In addition, the “Observed efficacy (%)” value is on record as 75% (150 g a.i./ha, 7 DAA, Table 11); 65% (150 g a.i./ha, 7 DAA, Table 12); 70% (150 g a.i./ha, 14 DAA, Table 7); 65% (150 g a.i./ha, 14 DAA, Table 8); 65% (150 g a.i./ha, 14 DAA, Table 9); 70% (150 g a.i./ha, 14 DAA, Table 10). The “Observed efficacy (%)” value reads like this: (150 g a.i./ha, 14 DAA, Table 11) 85%; (150 g a.i./ha, 14 DAA, Table 12) 70%; (150 g a.i./ha, 14 DAA, Table 15) 75%; (150 g a.i./ha, 21 DAA, Table 7) 70%; (150 g a.i./ha, 21 DAA, Table 8) 60%; (150 g a.i./ha, 21 DAA, Table 9) 60%. Further, the “Observed efficacy (%)” value reads like this: (150 g a.i./ha, 21 DAA, Table 10) 70%; (150 g a.i./ha, 21 DAA, Table 11) 85%; (150 g a.i./ha, 21 DAA, Table 12) 70%; (150 g a.i./ha, 21 DAA, Table 15) 70%; (150 g a.i./ha, 28 DAA, Table 7) 60%; (150 g a.i./ha, 28 DAA, Table 9) 60%. For the same compound, the “Observed efficacy (%)” value is, setting by setting: (150 g a.i./ha, 28 DAA, Table 10) 60%; (150 g a.i./ha, 28 DAA, Table 11) 85%; (150 g a.i./ha, 28 DAA, Table 12) 60%; (150 g a.i./ha, 28 DAA, Table 14) 60%; (150 g a.i./ha, 28 DAA, Table 15) 60%; (150 g a.i./ha, 35 DAA, Table 14) 55%. For the same compound, the “Observed efficacy (%)” value (150 g a.i./ha, 35 DAA, Table 15) amounted to 55%.
`CCc1cccc(C)c1N(COC(C)C)C(=O)CCl` [Propisochlor]: the “Observed efficacy (%)” value by setting is: (540 g a.i./ha, 7 DAA, Table 12) 0%; (540 g a.i./ha, 14 DAA, Table 12) 0%; (540 g a.i./ha, 21 DAA, Table 12) 0%; (540 g a.i./ha, 28 DAA, Table 12) 0%.
Take `Cn1nc(C(F)(F)F)c(CS(=O)(=O)C2=NOC(C)(C)C2)c1OC(F)F` [Pyroxasulfone]: the “Observed efficacy (%)” value is given as 0% (75 g a.i./ha, 7 DAA, Table 10); 15% (75 g a.i./ha, 14 DAA, Table 10); 25% (75 g a.i./ha, 21 DAA, Table 10); 20% (75 g a.i./ha, 28 DAA, Table 10).
In the case of `CCc1cccc(C)c1N(C(=O)CCl)[C@@H](C)COC` [S-metolachlor], the “Observed efficacy (%)” value runs as follows: (960 g a.i./ha, 7 DAA, Table 7) 0%; (960 g a.i./ha, 14 DAA, Table 7) 0%; (960 g a.i./ha, 21 DAA, Table 7) 0%; (960 g a.i./ha, 28 DAA, Table 7) 0%.
Take `CS(=O)(=O)c1ccc(C(=O)C2C(=O)CCCC2=O)c([N+](=O)[O-])c1` [mesotrione, Mesotrione]: under “100 g a.i./ha, 3 DAA, Table 16”, the “Observed efficacy (%)” value came out at 10%.
As to `CCN(CC)C(=O)C(C)Oc1cccc2ccccc12` (centres unmarked) [napropamide, Napropamide], the “Observed efficacy (%)” value runs as follows: (675 g a.i./ha, 7 DAA, Table 11) 5%; (675 g a.i./ha, 14 DAA, Table 11) 5%; (675 g a.i./ha, 21 DAA, Table 11) 5%; (675 g a.i./ha, 28 DAA, Table 11) 0%.
As to `CCOC(=O)C(C)Oc1ccc(Oc2cnc3cc(Cl)ccc3n2)cc1` (centres unmarked) [quizalofop-ethyl, Quizalofop-ethyl], the “Observed efficacy (%)” value is given as 35% (25 g a.i./ha, 28 DAA, Table 14) and 30% (25 g a.i./ha, 35 DAA, Table 14).
Regarding `C[C@@H](Oc1ccc(Oc2cnc3cc(Cl)ccc3n2)cc1)C(=O)OCC1CCCO1` (some centres unmarked) [quizalofop-p-tefuryl, Quizalofop-p-tefuryl], the “Observed efficacy (%)” value turned out to be 20% (25 g a.i./ha, 14 DAA, Table 15); 10% (25 g a.i./ha, 21 DAA, Table 15); 5% (25 g a.i./ha, 28 DAA, Table 15); 5% (25 g a.i./ha, 35 DAA, Table 15).
`CS(=O)(=O)c1ccc(C(=O)C2C(=O)CCCC2=O)c(Cl)c1COCC(F)(F)F` [tembotrione, Tembotrione]: the “Observed efficacy (%)” value (53 g a.i./ha, 3 DAA, Table 13) was found to be 8%.
